In patent US10391148B2, “Method of prevention and inhibition of preterm labor” (Wayne State University, priority 2016, dated 2019):
Entries after “also recorded” stand apart in the source; their conditions may differ.

Key:
[1] = tested on: PIBF1 expression by human peripheral blood B cells; assay: PIBF1 expression by purified human peripheral blood IgD+ B cells after stimulation (qRT-PCR, Western Blot); type: cell-based; conditions: 2 days (3 days in FIG. 4A), 100 ng/ml cytokine, 1 ng/ml TGF-β, 1 μM progesterone, vs medium control
Experimental: Placentas and the attached chorioamniotic membranes were obtained after delivery. In each case, several random strips of the chorioamniotic membranes located at different regions of the choriodecidua were embedded in rolls in optimal cutting temperature (OCT) compound (Sakura Finetek 4583), frozen in liquid nitrogen and stored at −80° C. for immunofluorescence analysis. Choriodecidual tissues were scraped from the chorionic membranes that had blood clots removed, and digested with 0.2% (w/v) Clostridium histolyticum Collagenase V (Sigma-Aldrich C9263) in RPMI-1640 with 10% fetal bovine serum (Thermo Fisher Scientific 26140-079) at 37° C. with gentle agitation for 45 minutes. Cells released from the tissues were cleaned by being passed through a 100 μm cell strainer and centrifuged on a Ficoll gradient. Peripheral blood leukocytes of anonymous healthy donors after leukophoresis were obtained from the Southeast Michigan branch of American Red Cross. Peripheral blood mononuclear cells (PBMCs) were isolated using Histopaque-1077 (Sigma-Aldrich 10771) following the manufacturer's instruction. Red blood cells were lysed using an ammonium-chloride-potassium (ACK) lysing buffer (Thermo Fisher Scientific A1049201). IgD+B cells were purified from PBMCs by magnetic-activated cell sorting (MACS) with a biotinylated goat F(ab′)2 anti-human IgD antibody and anti-biotin magnetic microbeads (Miltenyi Biotec) as described in Chen, K., et al., Nat Immunol 10, 889-898 (2009). The purity of the IgD+B cells ranged from 92% to 99% as determined by flow cytometry with CDI9 staining. CD19+ B cells were similarly separated from PBMCs using a biotinylated mouse anti-human CD19 (clone HIB19) antibody, with purity ranging from 93% to 97% as determined by flow cytometry using a different clone (SJ25C1) of CD19 antibody.
Human PMBCs, IgD+B cells, CD19+ B cells or PBMCs depleted of CD19+ B cells were cultured in RPMI-1640 medium (Sigma-Aldrich R8578) supplemented with 2 mM L-glutamine, 2 mg/ml NaHCO3, 100 U/ml penicillin, 100 µg/ml streptomycin, […] amphotericin B and 10% FBS. Cells were stimulated with 100 ng/ml IL-33 (R&D 3625-IL-010 or Peprotech 200-33), 1 μM progesterone (Sigma-Aldrich P0130), IL-4 (Peprotech 200-04), IL-10 (Peprotech 200-10), IL-17A (Peprotech 200-17), IL-25 (R&D 1258-IL-025), IFN-γ (Peprotech 300-02), TGF-β (R&D 240-B-010/CF), TNF (210-TA-020) or TSLP (Peprotech 300-62). RNA or protein expression was analyzed after 2 days.
RNA was extracted from cells or tissues using TRIzol (Thermo Fisher Scientific 15596026). cDNA synthesis was performed using the Superscript III first strand synthesis system (Thermo Fisher Scientific 188080051) in a thermocycler (Bio-Rad T100). qRT-PCR was performed with Power SYBR Green PCR Master Mix (Thermo Fisher Scientific 4367660) in a StepOnePlus instrument (Applied Biosystems) using pairs of sense and anti-sense primers targeted at the genes of interest (Tables 2, 3).
Cells were pelleted and washed twice with cold PBS and lysed in a pH 8.0 protein extraction buffer containing 20 mM Tris-HCl, 150 mM NaCl, 1% IGEPAL CA-630 (Sigma-Aldrich 18896), 0.1% sodium dodecyl sulfate (SDS), 1 mM EDTA and protease and phosphatase inhibitor cocktail on ice for 30 minutes. For protein extraction from mouse uterus and human chorioamniotic membranes, the tissue was washed twice with PBS to remove blood and homogenized in the above protein extraction buffer with a tissue tearor (Biospec Products 985370), followed by 3 rounds of sonication at 30% maximum power for 5 seconds per round using a sonifier (Thermo Fisher Scientific Q500). Supernatants were collected after centrifugation, heated at 98° C. in an SDS buffer with 4% β-mecaptoethanol for 5 minutes to denature proteins. Proteins were resolved in 4-20% Bis-Tris gels (GenScript M42012) and transferred to 0.45 μm nitrocellulose membranes (Bio-Rad 1620115). […]

[2] = tested on: pregnant female μMT mice (LPS-induced PTL); assay: LPS-induced preterm labor in pregnant μMT mice: preterm delivery and neonatal/fetal mortality; type: in vivo, mouse; conditions: read on gd 17.5, fPIBF1 1 μg (800 ng in method), cPIBF1 300 ng, vs PBS; for rate of preterm delivery (PTL): protein intravenous on gd 16.5 three hours before 5 μg intraperitoneal LPS
Experimental: Six to ten-week old virgin female C57BL/6 (WT) or μMT mice were mated with male Balb/c mice. Female mice were examined daily in the early morning for the presence of a vaginal plug, which denoted gestational day (gd) 0.5. In the late morning of gd 16.5, pregnant female mice were intraperitoneally administered with 200 μl sterile PBS or 200 μl sterile PBS containing 0.5, 2.5, 5, 10 or 20 μg lipopolysaccharides (LPS) from Salmonella enterica serotype typhimurium (Sigma-Aldrich L6143). The various doses of LPS were given to the mice randomly. In some experiments, splenic B cells of 5 to 8-week old virgin female WT or IL-10−/− mice were purified using a mouse resting B cell negative isolation kit (Miltenyi Biotec 130-090-862) to 94% to 99% purity as determined by CD19 staining. 107 purified B cells were adoptively transferred in 200 μl sterile PBS into pregnant female μMT mice on gd 14.5 prior to LPS administration on gd 16.5. In some other experiments, 200 μl sterile PBS or 200 μl sterile PBS containing 800 ng recombinant full-length PIBF1 (fPIBF1) (aa 1-757 (SEQ ID NO:11, with an N-terminal glutathione-S-transferase (GST) tag of 232 amino acids, Abnova H00010464-P01) or 300 ng of a recombinant C-terminal fragment of PIBF1 (cPIBF1) (aa 660-755 (SEQ ID NO:12), with an N-terminal glutathione-S-transferase (GST) tag of 232 amino acids, Abnova H00010464-Q01) was intravenously administered to pregnant female μMT mice on gd 16.5 three hours prior to intraperitoneal LPS administration. 24 hours after LPS administration, female mice were examined for delivery and death of delivered pups if delivery occurred. They were then sacrificed for the examination of neonatal/fetal mortality, which was calculated as the total number of dead delivered pups and dead fetuses divided by the total number of implantation sites. Uteri were collected, briefly washed in PBS and processed for RNA and protein extraction or flow cytometry. The people performing the analysis were not blinded to the genotype or treatment of the mice.
The sample size was calculated based on the effect size derived from preliminary data at 5% significance level and 80% power using the software G*Power 3.1. Sample availability exceeded the estimated sample size. Results are expressed as mean±S.E.M. Percentage data were subjected to square root transformation prior to statistical analysis to verify test assumptions of equal variance. Statistical difference in the rate of PTL between different strains of mice or different treatment groups was assessed by Fisher's exact test. Statistical difference in neonatal/fetal mortality was assessed by Mann-Whitney U test. For flow cytometry and qRT-PCR data, Shapiro-Wilk test was used to determine the normality of the data. Statistical significance was assessed by Student's t-test for normally distributed data and Mann-Whitney U test for non-normally distributed data. p values <0.05 were considered statistically significant.

CC(=O)[C@H]1CC[C@H]2[C@@H]3CCC4=CC(=O)CC[C@]4(C)[C@H]3CC[C@]12C [progesterone, reference compound]
PIBF1 expression by human peripheral blood B cells (PIBF1 transcript fold change, Western Blot) [1]: known inducer of PIBF1

TGF-β: cytokine, R&D 240-B-010/CF [reference compound]
PIBF1 expression by human peripheral blood B cells (PIBF1 transcript fold change, Western Blot) [1]: had no effect; also recorded: do not induce

TSLP: T helper type 2 cytokine, Peprotech 300-62 [reference compound]
PIBF1 expression by human peripheral blood B cells (PIBF1 transcript fold change, Western Blot) [1]: only IL-33 induced PIBF1 expression; also recorded: do not induce

cPIBF1: recombinant C-terminal fragment of PIBF1, aa 660-755, SEQ ID NO:12, N-terminal GST tag, Abnova H00010464-Q01
neonatal/fetal mortality ([2]; protein intravenous on gd 16.5 before 5 μg intraperitoneal LPS): neither mitigated | rate of preterm delivery (PTL) [2]: neither mitigated | rate of preterm delivery (PTL) ([2]; listed as C-terminal fragment of PIBF1): does not protect

B1: IL-33: interleukin 33 cytokine (R&D 3625-IL-010 or Peprotech 200-33); human IL-33 is SEQ ID NO: 5 (protein, listed as Homo sapiens)
chain: MKPKMKYSTNKISTAKWKNTASKALCFKLGKSQQKAKEVCPMYFMKLRSGLMIKKEACYFRRETTKRPSLKTGRKHKRHLVLAACQQQSTVECFAFGISGVQKYTRALHDSSITGISPITEYLASLSTYNDQSITFALEDESYEIYVEDLKKDEKKDKVLLSYYESQHPSNESGDGVDGKMLMVTLSPTKDFWLHANNKEHSVELHKCEKPLPDQAFFVLHNMHSNCVSFECKTDPGVFIGVKDNHLALIKVDSSENLCTENILFKLSET
PIBF1 expression by human peripheral blood B cells (PIBF1 transcript fold change, Western Blot) [1]: promoted PIBF1 expression

B2: IL-10: cytokine, Peprotech 200-10 (protein, UniProt P22301 19-178, looked up)
Interleukin-10: SPGQGTQSENSCTHFPGNLPNMLRDLRDAFSRVKTFFQMKDQLDNLLLKESLLEDFKGYLGCQALSEMIQFYLEEVMPQAENQDPDIKAHVNSLGENLKTLRLRLRRCHRFLPCENKSKAVEQVKNAFNKLQEKGIYKAMSEFDIFINYIEAYMTMKIRN
PIBF1 expression by human peripheral blood B cells (PIBF1 transcript fold change, Western Blot) [1]: had no effect; also recorded: do not induce

B3: IL-25: T helper type 2 cytokine, R&D 1258-IL-025 (protein, UniProt Q9H293 33-177, looked up)
Interleukin-25: YSHWPSCCPSKGQDTSEELLRWSTVPVPPLEPARPNRHPESCRASEDGPLNSRAISPWRYELDRDLNRLPQDLYHARCLCPHCVSLQTGSHMDPRGNSELLYHNQTVFYRRPCHGEKGTHKGYCLERRLYRVSLACVCVRPRVMG
PIBF1 expression by human peripheral blood B cells (PIBF1 transcript fold change, Western Blot) [1]: only IL-33 induced PIBF1 expression; also recorded: do not induce

B4: IFN-γ: cytokine, Peprotech 300-02 (protein, UniProt P01579 24-161, looked up)
Interferon gamma: QDPYVKEAENLKKYFNAGHSDVADNGTLFLGILKNWKEESDRKIMQSQIVSFYFKLFKNFKDDQSIQKSVETIKEDMNVKFFNSNKKKRDDFEKLTNYSVTDLNVQRKAIHELIQVMAELSPAAKTGKRKRSQMLFRG
PIBF1 expression by human peripheral blood B cells (PIBF1 transcript fold change, Western Blot) [1]: had no effect; also recorded: do not induce

B5: IL-4: T helper type 2 cytokine, Peprotech 200-04 (protein, UniProt P05112 25-153, looked up)
Interleukin-4: HKCDITLQEIIKTLNSLTEQKTLCTELTVTDIFAASKNTTEKETFCRAATVLRQFYSHHEKDTRCLGATAQQFHRHKQLIRFLKRLDRNLWGLAGLNSCPVKEANQSTLENFLERLKTIMREKYSKCSS
PIBF1 expression by human peripheral blood B cells (PIBF1 transcript fold change, Western Blot) [1]: only IL-33 induced PIBF1 expression; also recorded: do not induce
